From patent publication US20050197371A1, “Urea derivatives as PDGFR modulators” (Ambit Biosciences Corporation, priority 2003, published 2005)

Target: T1, PDGFRB(DKIN) (PDGFR-β) (Homo sapiens, UniProt P09619)
T1 construct: PDGFRB(DKIN)
Assay: Phage-display competitive binding assay, PDGFRB(DKIN)
Conditions: T7 phage displaying human PDGFR-β, DKIN construct; read-out: Binding Assay: PDGFRB(DKIN)
Description: The term “ND” represents non-determined values.
Briefly, T7 phage displaying human PDGFR-β were incubated with an affinity matrix coated with known PDGFR-β inhibitor in the presence of various concentrations of the soluble competitor molecules.

SMILES | Kd [nM]
CC(C)(C)c1cc(NC(=O)Nc2ccc(OCCN3CCOCC3)c3ccccc23)no1 [Compound K1] | 100 to 1000
Cn1nc(-c2ccccc2)c2cc(C(=O)Nc3ccc(NC(=O)Nc4cc(C(C)(C)C)[nH]n4)cc3)[nH]c21 [Compound N5] | 100 to 1000
CC(C)(C)c1cc(NC(=O)Nc2ccc(NC(=O)c3ncccc3C(N)=O)cc2)n[nH]1 [Compound N6] | 100 to 1000
CC(C)(C)c1cc(NC(=O)Nc2ccc(NC(=O)c3cc([N+](=O)[O-])ccn3)cc2)no1 [Compound N7] | < 100
CC(C)(C)c1cc(NC(=O)Nc2ccc(NC(=O)c3cn4nc(Cl)ccc4n3)cc2)no1 [Compound N9] | < 100
Cn1nc(C(C)(C)C)cc1C(=O)Nc1ccc(NC(=O)Nc2cc(C(C)(C)C)on2)cc1 [Compound N10] | 100 to 1000
COC(=O)c1ccc(C(=O)Nc2ccc(NC(=O)Nc3cc(C(C)(C)C)on3)cc2)nc1 [Compound N12] | 100 to 1000
CC(C)(C)c1cc(NC(=O)Nc2ccc(NC(=O)C3=NCC=N3)cc2)no1 [Compound N13] | < 100
Cc1nc(C(=O)Nc2ccc(NC(=O)Nc3cc(C(C)(C)C)on3)cc2)nn1-c1cc(Cl)cc(Cl)c1 [Compound N15] | 100 to 1000
CC(C)(C)c1cc(NC(=O)Nc2ccc(NC(=O)c3csc(-c4ccncc4)n3)cc2)no1 [Compound N16] | < 100
CC(C)(C)c1cc(NC(=O)Nc2ccc(NC(=O)c3cc4cc(Br)ccc4s3)cc2)no1 [Compound N17] | < 100
Cc1nnsc1C(=O)Nc1ccc(NC(=O)Nc2cc(C(C)(C)C)on2)cc1 [Compound N18] | 100 to 1000
CC(C)(C)c1cc(NC(=O)Nc2ccc(NC(=O)c3c[nH]c(=O)nc3-c3ccncc3)cc2)no1 [Compound N19] | 1000 to 10000
Cn1cc(C(=O)Nc2ccc(NC(=O)Nc3cc(C(C)(C)C)on3)cc2)c(C(F)(F)F)n1 [Compound N20] | 100 to 1000
COc1nc(C)cc(C)c1C(=O)Nc1ccc(NC(=O)Nc2cc(C(C)(C)C)on2)cc1 [Compound N22] | 100 to 1000
CC(C)(C)c1cc(NC(=O)Nc2ccc(NC(=O)Cc3ccc(-c4ccccc4)cc3)cc2)no1 [Compound N38] | 100 to 1000
Cc1[nH]c(C(=O)Nc2ccc(NC(=O)Nc3cc(C(C)(C)C)on3)cc2)c(C)c1CCC(=O)O [Compound N39] | < 100
CC(=O)c1c[nH]c(C(=O)Nc2ccc(NC(=O)Nc3cc(C(C)(C)C)on3)cc2)c1 [Compound N43] | < 100
COc1cc(OC)nc(Oc2ccccc2C(=O)Nc2ccc(NC(=O)Nc3cc(C(C)(C)C)on3)cc2)n1 [Compound N47] | 100 to 1000
COc1cc(OC)nc(Nc2cccc(C(=O)Nc3ccc(NC(=O)Nc4cc(C(C)(C)C)on4)cc3)c2)n1 [Compound N49] | 100 to 1000
COc1ccnc(Nc2ccc(C(=O)Nc3ccc(NC(=O)Nc4cc(C(C)(C)C)on4)cc3)cc2)n1 [Compound N51] | < 100
COc1cc(OC)nc(N(C)c2cccc(C(=O)Nc3ccc(NC(=O)Nc4ccon4)cc3)c2)n1 [Compound N53] | 100 to 1000
CC(C)(C)c1cc(NC(=O)Nc2ccc(NC(=O)c3cc(N4CCOCC4)nc(N4CCOCC4)n3)cc2)no1 [Compound N54] | < 100
Cc1nc(C(=O)Nc2ccc(NC(=O)Nc3cc(C(C)(C)C)on3)cc2)c(C(F)(F)F)o1 [Compound N55] | 100 to 1000
COc1cc(OC)nc(Oc2cccnc2C(=O)Nc2ccc(NC(=O)Nc3cc(C(C)(C)C)on3)cc2)n1 [Compound N56] | 1000 to 10000

SMILES | Kd [nM]
CC(C)c1cc(NC(=O)Nc2ccc(NC(=O)C3CCN(c4ncc(C(F)(F)F)cc4Cl)CC3)cc2)no1 [Compound N59] | 100 to 1000
CC(C)(C)c1cc(NC(=O)Nc2ccc(NC(=O)c3cc4cccc5c4n(c3=O)CC5)cc2)no1 [Compound N60] | < 100
CC(C)(C)c1cc(NC(=O)Nc2ccc(NC(=O)c3cc4cccnc4nc3C(F)(F)F)cc2)no1 [Compound N61] | 1000 to 10000
CC(C)(C)c1cc(NC(=O)Nc2ccc(NC(=O)C3=Cc4cc(F)cc(S(C)(=O)=O)c4C3)cc2)no1 [Compound N62] | 1000 to 10000
Cn1nc(C(F)(F)F)c2cc(C(=O)Nc3ccc(NC(=O)Nc4cc(C(C)(C)C)on4)cc3)sc21 [Compound N64] | > 10000
CC(=O)c1ccc(N2CCC(C(=O)Nc3ccc(NC(=O)Nc4cc(C(C)(C)C)on4)cc3)CC2)cc1 [Compound N65] | 100 to 1000
CC(C)(C)c1cc(NC(=O)Nc2ccc(NC(=O)Cc3oc(-c4ccc(Cl)cc4)nc3-c3ccccc3)cc2)no1 [Compound N66] | 100 to 1000
Cn1nc(C(F)(F)F)c(C(=O)Nc2ccc(NC(=O)Nc3cc(C(C)(C)C)on3)cc2)c1Cl [Compound N68] | 100 to 1000
COc1cc(OC)nc(Oc2ccccc2C(=O)Nc2ccc(NC(=O)Nc3cc(C(C)(C)C)on3)cc2)n1 [Compound N70] | 1000 to 10000
CC(C)(C)c1cc(NC(=O)Nc2ccc(NC(=O)c3nnsc3Oc3ccc(Cl)cc3)cc2)no1 [Compound N71] | 1000 to 10000
CC(C)(C)c1cc(NC(=O)Nc2ccc(NC(=O)CSCC(=O)Nc3ccccc3)cc2)no1 [Compound N72] | 100 to 1000
C=N/C(=N\C)Oc1cccc(C(=O)Nc2ccc(NC(=O)Nc3cc(C(C)(C)C)on3)cc2)c1 [Compound N74] | < 100
CC(C)c1oc(Cl)nc1C(=O)Nc1ccc(NC(=O)Nc2cc(C(C)(C)C)on2)cc1 [Compound N75] | < 100
CC(C)(C)c1cc(NC(=O)Nc2ccc(NC(=O)c3ccc(-n4cc(-c5ccncn5)cn4)cc3)cc2)no1 [Compound N76] | 100 to 1000
CC(C)(C)c1cc(C(=O)Nc2ccc(NC(=O)Nc3cc(C(C)(C)C)on3)cc2)n(-c2ccccc2)n1 [Compound N78] | 1000 to 10000
CC(=O)Oc1cccnc1C(=O)Nc1ccc(NC(=O)Nc2cc(C(C)(C)C)on2)cc1 [Compound N79] | < 100
CC(C)(C)c1cc(NC(=O)Nc2ccc(NC(=O)c3nocc3C(C)(C)C)cc2)no1 [Compound N82] | 100 to 1000
CCOC(=O)CCc1c(C)[nH]c(C(=O)Nc2ccc(NC(=O)Nc3cc(C(C)(C)C)on3)cc2)c1C [Compound N83] | < 100
CNC(=O)c1ccc(NC(=O)Nc2cc(C(C)(C)C)on2)cc1 [Compound N85] | 100 to 1000
CC(C)(C)c1cc(NC(=O)Nc2ccc(C(N)=O)cc2)no1 [Compound N86] | 100 to 1000
CC(C)(C)c1cc(NC(=O)Nc2ccc(C(=O)NCCO)cc2)no1 [Compound N87] | 100 to 1000
C[C@H](NC(=O)c1ccc(NC(=O)Nc2cc(C(C)(C)C)on2)cc1)c1ccccc1 [Compound N88] | 100 to 1000
CC(C)(C)c1cc(NC(=O)Nc2ccc(C(=O)NCc3ccccc3)cc2)no1 [Compound N89] | 100 to 1000
CC(C)(C)c1cc(NC(=O)Nc2ccc(NC(=O)C3CCCCC3)cc2)no1 [Compound N91] | 100 to 1000

The remaining lines, values ahead:

Kd [nM] | SMILES
< 100 | CC(C)(C)c1cc(NC(=O)Nc2ccc(NC(=O)c3cn4cc(Cl)ccc4n3)cc2)no1 [Compound N3]
< 100 | CC(C)(C)c1cc(NC(=O)Nc2ccc(NC(=O)c3cccc(Cl)n3)cc2)no1 [Compound N4]
< 100 | CC(C)(C)c1cc(NC(=O)Nc2ccc(NC(=O)c3cccc(F)n3)cc2)no1 [Compound N8]
> 10000 | Cn1nc(-c2ccccc2)c(C(=O)Nc2ccc(NC(=O)Nc3cc(C(C)(C)C)on3)cc2)c1Cl [Compound N11]
100 to 1000 | CC(C)(C)c1cc(NC(=O)Nc2ccc(NC(=O)c3csnn3)cc2)no1 [Compound N14]
< 100 | CC(C)(C)c1cc(NC(=O)Nc2ccc(NC(=O)c3ccccc3Cl)cc2)no1 [Compound N23]
1000 to 10000 | CC(C)(C)c1cc(NC(=O)Nc2ccc(NC(=O)c3cccc(Br)c3)cc2)no1 [Compound N24]
100 to 1000 | CC(C)(C)c1cc(NC(=O)Nc2ccc(NC(=O)c3cccc(OC(F)F)c3)cc2)no1 [Compound N25]
< 100 | CC(C)(C)c1cc(NC(=O)Nc2ccc(NC(=O)c3ccc4ccccc4c3)cc2)no1 [Compound N28]
100 to 1000 | CC(C)(C)c1cc(NC(=O)Nc2ccc(NC(=O)c3cc(Cl)cc(Cl)c3)cc2)no1 [Compound N29]
< 100 | CCc1ccc(C(=O)Nc2ccc(NC(=O)Nc3cc(C(C)(C)C)on3)cc2)cc1 [Compound N32]
< 100 | CC(C)(C)c1cc(NC(=O)Nc2ccc(NC(=O)c3ccccc3)cc2)no1 [Compound N34]
100 to 1000 | CC(C)(C)c1cc(NC(=O)Nc2ccc(NC(=O)Cc3ccccc3)cc2)no1 [Compound N35]
1000 to 10000 | CC(C)(C)c1cc(NC(=O)Nc2ccc(NC(=O)c3c(F)cccc3F)cc2)no1 [Compound N37]
100 to 1000 | CC(C)(C)c1cc(NC(=O)Nc2ccc(NC(=O)/C=C/c3ccccc3Cl)cc2)no1 [Compound N40]
< 100 | Cc1cccnc1C(=O)Nc1ccc(NC(=O)Nc2cc(C(C)(C)C)on2)cc1 [Compound N41]
100 to 1000 | CC(C)(C)c1cc(NC(=O)Nc2ccc(NC(=O)C(N)Cc3ccccc3F)cc2)no1 (stereo not drawn) [Compound N42]
1000 to 10000 | CC(C)(C)c1cc(NC(=O)Nc2ccc(NC(=O)CC(N)c3ccccc3Cl)cc2)no1 (stereo not drawn) [Compound N44]
100 to 1000 | CC(C)(C)c1cc(NC(=O)Nc2ccc(NC(=O)c3cnn(-c4cccc(Cl)c4)c3Br)cc2)no1 [Compound N45]
1000 to 10000 | CC(C)(C)c1cc(NC(=O)Nc2ccc(NC(=O)c3ccccc3O)cc2)no1 [Compound N69]
< 100 | CC(C)(C)c1cc(NC(=O)Nc2ccc(NC(=O)Cc3noc4ccccc34)cc2)no1 [Compound N80]
< 100 | CC(C)(C)c1cc(NC(=O)Nc2ccc(NC(=O)c3cccc[n+]3[O-])cc2)no1 [Compound N81]
< 100 | Cc1ccc(NC(=O)c2ccc(NC(=O)Nc3cc(C(C)(C)C)on3)cc2)cc1 [Compound N84]
100 to 1000 | CC(C)(C)c1cc(NC(=O)Nc2ccc(C(=O)Nc3ccccc3)cc2)no1 [Compound N90]
< 100 | Cc1ccc(C(=O)Nc2ccc(NC(=O)Nc3cc(C(C)(C)C)on3)cc2)cc1 [Compound N92]

Same assay, conditions: read-out: Binding Assay: PDGFRB(DKIN); T7 phage displaying human PDGFR-β, DKIN construct

Kd [nM] | SMILES
< 100 | CC(C)(C)c1cc(NC(=O)Nc2ccc(NC(=O)c3cn4c(n3)sc3ccccc34)cc2)no1 [Compound N73]
